Like-named read-outs stand apart in the source and are kept apart here.
How the values were obtained:
[1] = tested on: Key Broadleaf Weed and Crop Species; assay: Post-emergent Test II herbicidal activity (Table 5); type: in vivo; conditions: post-emergence, 336 h, post-emergent, 14 days after application; for pest or weed control at 70 g/ha: 70 g ai/ha; for pest or weed control at 140 g/ha: 140 g ai/ha
Outline: (§1)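 Plants grown in Metro-Mix 360 (pH 6.0–6.8) in a greenhouse (~15 h photoperiod, 23–29 °C day) to first or second true leaf stage, then sprayed with compound in acetone/DMSO/aqueous crop-oil-surfactant carrier at 187 L/ha by track sprayer. Injury visually scored 0–100% versus untreated plants after 14 d.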

[2] = tested on: Key Grass and Sedge Weeds as well as Grass Crops; assay: Post-emergent Test II herbicidal activity (Table 6); type: in vivo; conditions: post-emergence, 336 h; for pest or weed control at 70 g/ha: application rate 70 g ai/ha; for pest or weed control at 140 g/ha: application rate 140 g ai/ha
Outline: as §1

[3] = ABUTH: velvetleaf (Abutilon theophrasti), read-out: Visual Growth Reduction (%) 14 Days After Application ABUTH
[4] = AMARE: redroot pigweed (Amaranthus retroflexus), read-out: Visual Growth Reduction (%) 14 Days After Application AMARE
[5] = BRSNN: oilseed-rape, canola (Brassica napus), read-out: Visual Growth Reduction (%) 14 Days After Application BRSNN
[6] = CHEAL: lambsquarters (Chenopodium album), read-out: Visual Growth Reduction (%) 14 Days After Application CHEAL
[7] = EPHHL: wild poinsettia (Euphorbia heterophylla), read-out: Visual Growth Reduction (%) 14 Days After Application EPHHL
[8] = HELAN: sunflower (Helianthus annuus), read-out: Visual Growth Reduction (%) 14 Days After Application HELAN
[9] = VIOTR: wild pansy (Viola tricolor), read-out: Visual Growth Reduction (%) 14 Days After Application VIOTR
[10] = Triticum aestivum, TRZSS (wheat), read-out: Visual Growth Reduction (%) 14 Days After Application, TRZSS
[11] = CYPES: yellow nutsedge (Cyperus esculentus), read-out: Visual Growth Reduction (%) 14 Days After Application, CYPES
[12] = DIGSA: crabgrass (Digitaria sanguinalis), read-out: Visual Growth Reduction (%) 14 Days After Application, DIGSA
[13] = ECHCG: barnyardgrass (Echinochloa crus-galli), read-out: Visual Growth Reduction (%) 14 Days After Application, ECHCG
[14] = ORYSA: rice (Oryza sativa), read-out: Visual Growth Reduction (%) 14 Days After Application, ORYSA
[15] = SETFA: giant foxtail (Setaria faberi), read-out: Visual Growth Reduction (%) 14 Days After Application, SETFA
[16] = SORVU: grain sorghum (Sorghum vulgare), read-out: Visual Growth Reduction (%) 14 Days After Application, SORVU
[17] = ZEAMX: maize, corn (Zea mays), read-out: Visual Growth Reduction (%) 14 Days After Application, ZEAMX

Row | SMILES | pest or weed control at 70 g/ha [1, 3] [%] | pest or weed control at 140 g/ha [1, 3] [%] | pest or weed control at 70 g/ha [1, 4] [%] | pest or weed control at 140 g/ha [1, 4] [%] | pest or weed control at 70 g/ha [1, 5] [%] | pest or weed control at 140 g/ha [1, 5] [%] | pest or weed control at 70 g/ha [1, 6] [%] | pest or weed control at 140 g/ha [1, 6] [%] | pest or weed control at 70 g/ha [1, 7] [%] | pest or weed control at 140 g/ha [1, 7] [%] | pest or weed control at 70 g/ha [1, 8] [%] | pest or weed control at 140 g/ha [1, 8] [%] | pest or weed control at 70 g/ha [1, 9] [%] | pest or weed control at 140 g/ha [1, 9] [%] | pest or weed control at 70 g/ha [2, 10] [%] | pest or weed control at 140 g/ha [2, 10] [%] | pest or weed control at 70 g/ha [2, 11] [%] | pest or weed control at 140 g/ha [2, 11] [%] | pest or weed control at 70 g/ha [2, 12] [%] | pest or weed control at 140 g/ha [2, 12] [%] | further results
1 | Cc1c(-c2ccc(I)cc2)nc(C(=O)O)c(Cl)c1N [Compound 116, 4-Amino-3-chloro-6-(4-iodophenyl)-5-methylpicolinic acid] | 95 to 100 | 95 to 100 | 75 to 84 | 85 to 94 | 85 to 94 | 95 to 100 | 85 to 94 | 85 to 94 | 0 to 29 | 0 to 29 | 95 to 100 | 95 to 100 | 0 to 29 | 0 to 29 | 45 to 59 | 45 to 59 | 0 to 29 | 0 to 29 | 45 to 59 | 60 to 74 | pest or weed control at 70 g/ha [2, 13]: 45 to 59%; pest or weed control at 140 g/ha [2, 13]: 60 to 74%; pest or weed control at 70 g/ha [2, 14]: 0 to 29%; pest or weed control at 140 g/ha [2, 14]: 0 to 29%; pest or weed control at 70 g/ha [2, 15]: 45 to 59%; pest or weed control at 140 g/ha [2, 15]: 60 to 74%; pest or weed control at 70 g/ha [2, 16]: 30 to 44%; pest or weed control at 140 g/ha [2, 16]: 45 to 59%; pest or weed control at 70 g/ha [2, 17]: 45 to 59%; pest or weed control at 140 g/ha [2, 17]: 60 to 74%
2 | C=Cc1c(C(=O)O)nc(-c2ccc(Br)cc2)c(F)c1N [Compound 117] | 95 to 100 | 95 to 100 | 95 to 100 | 95 to 100 | 75 to 84 | 75 to 84 | 95 to 100 | 95 to 100 | 95 to 100 | 95 to 100 | 85 to 94 | 85 to 94 | 0 to 29 | 0 to 29 | 0 to 29 | 0 to 29 | 95 to 100 | 95 to 100 | 0 to 29 | 0 to 29 | pest or weed control at 70 g/ha [2, 13]: 75 to 84%; pest or weed control at 140 g/ha [2, 13]: 75 to 84%; pest or weed control at 70 g/ha [2, 14]: 45 to 59%; pest or weed control at 140 g/ha [2, 14]: 45 to 59%; pest or weed control at 70 g/ha [2, 15]: 0 to 29%; pest or weed control at 140 g/ha [2, 15]: 45 to 59%; pest or weed control at 70 g/ha [2, 16]: 85 to 94%; pest or weed control at 140 g/ha [2, 16]: 85 to 94%; pest or weed control at 70 g/ha [2, 17]: 45 to 59%; pest or weed control at 140 g/ha [2, 17]: 60 to 74%

Reference: US9113629B2, “4-amino-6-(4-substituted-phenyl)-picolinates and 6-amino-2-(4-substituted-phenyl)-pyrimidine-4-carboxylates and their use as herbicides” (DOW AGROSCIENCES LLC, priority 2013, dated 2015)
